Experimental findings from patent US7317009B2, “Pyrrolopyridazine derivatives” (Astellas Pharma Inc., priority 2003, dated 2008) are described below.

Data set [1] concerns the target U937 Phosphodiesterase IV (PDE IV). Nature of the data set: Inhibition of U937 Phosphodiesterase IV (PDE IV). Format: biochemical. The conditions noted are these: enzyme preparation from U937 cells, [3H]cAMP SPA assay, CI-930 10 μM added, 30° C. 15 minutes; read-out: IC50, inhibitory activity on PDE-IV. How it is done:
(a) Inhibition of U937 Phosphodiesterase IV (PDE IV)
Cultured U937 cells were washed twice and harvested with phosphate-buffered saline (PBS) by cell-scraper. After centrifugation, the cell pellet was suspended in homogenizing buffer (0.5% deoxycholate [DOC], 5 mM 2-mercaptoethanol, 1 μM leupeptin, 100 μM PMSF, 20 μM p-tosyl-L-lysine-chloromethyl ketone [TLCK] in PBS). The cell suspension was then sonicated for a couple of minutes and homogenized by a glass-Teflon homogenizer with twenty strokes. The homogenate was centrifuged at 200 g for 30 minutes, and the supernatant was further ultra-centrifuged at 100,000×g for 90 minutes (4° C.). […]
PDE4, activity was estimated with a Phosphodiesterase [^3H]cAMP SPA Enzyme Assay System (Amersham Pharmacia Biotech), using a 96 well Opti-plate. […] Radio-activity in each well was counted by a Top Counter. […]
IC50 values of test compounds for the enzyme activity of PDE4 was determined from regression analysis for log-logit conversion values of percent inhibition in the compound-treated tubes compared to that of the control. Percent inhibition was calculated with the following equation: Inhibition (%)={1−(C−B)/(A−B)}×100; in which A, B and C means mean values of radio-activity counts (dpm) of control, blank and the compound-treated tubes, respectively.

Data set [2] has as its system TNF-alpha production in LPS stimulated human peripheral blood mononuclear cells (PBMCs). Nature of the data set: Inhibition on TNF-alpha Production in Human Mononuclear Cells. Format: cell-based. The following applies: PBMC, LPS 1 μg/mL, 24 hours, TNF-alpha by ELISA, read-out: IC50, TNF-alpha production from stimulated PBMCs. How it is done: (b) Inhibition on TNF-alpha Production in Human Mononuclear Cells 1. Test Method (1) Human Peripheral Blood Mononuclear Cells (PBMCs) Preparation
Blood (30 ml for each person) was collected from the median cubital vein of healthy volunteer was divided 15 mL each in heparin containing conical tube and the same volume of RPMI1640 was added to each tube. Diluted blood was then piled up to 20 mL of Ficoll-Paque PLUS (Amersham Pharmacia Biotech) in polystyrene centrifuge tube. After centrifugation at 1,600 rpm for 30 minutes, cells gathering in the center area of the gradient were collected by capillary and washed with 40 mL of RPMI1640 in several times with centrifugation at 1,200 rpm for 10 minutes. PBMC finally precipitated were suspended in RPMI1640 containing 1% fetal bovine serum and antibiotics. After cell counting, final suspension at 3×10^6 cells/mL in culture medium was prepared.
Human PBMCs prepared by the density gradient method using Ficoll-Paque PLUS were suspended in the culture medium mentioned above with the concentration of 3×10^6 cells/mL and 0.5 mL of the suspension was sowed into each well of a 24-well culture plate. Cells were incubated in the CO2 incubator for 24 hours with 0.25 mL of LPS in addition of 0.25 mL of concentrations of drugs or vehicle at the start of the incubation. […] TNF-alpha levels in the medium were measured by ELISA. […]
On the technique in general: In an ELISA, binding on a coated surface is turned into a signal by an enzyme label.

Structures are written as SMILES.

The melting point is the temperature of the solid-liquid transition. Compound `CCc1ccc2c(-c3cccc(C#N)c3)c(CCCCC(=O)Nc3ccccn3)c(-c3ccccc3)nn12` [Example 263, 5-[4-(3-Cyanophenyl)-7-ethyl-2-phenylpyrrolo[1,2-b]pyridazin-3-yl]-N-(2-pyridinyl)pentanamide] had a melting point of 67 to 70 °C. The same measure, in the same setting: with `CCc1ccc2c(-c3cccc(Cl)c3)c(CCCCC(=O)N3CCOCC3)c(-c3ccccc3)nn12` [Example 279, 4-(3-Chlorophenyl)-7-ethyl-3-[5-(4-morpholinyl)-5-oxopentyl]-2-phenylpyrrolo[1,2-b]pyridazine] the figure was 55 to 58 °C. Same read-out and setting: with `CCc1ccc2c(-c3cccc(C#N)c3)c3c(nn12)CCC3=O` [Example 10, 3-(6-Ethyl-1-oxo-2,3-dihydro-1H-cyclopenta[e]pyrrolo[1,2-b]pyridazin-9-yl)benzonitrile] the figure was 150 to 154 °C; with `CCc1ccc2c(-c3cncc(Br)c3)c(CCC(=O)O)c(C)nn12` [Example 135, 3-[4-(5-Bromo-3-pyridinyl)-7-ethyl-2-methylpyrrolo[1,2-b]pyridazin-3-yl]propanoic acid], 181 to 182 °C; with `CCc1ccc2c(-c3cccc(Cl)c3)c(CCCCC(=O)NC)c(-c3ccccc3)nn12` [Example 280, 5-[4-(3-Chlorophenyl)-7-ethyl-2-phenylpyrrolo[1,2-b]pyridazin-3-yl]-N-methylpentanamide], 70 to 72 °C. On the same count and under the same terms, with `CCOC(=O)CC(=O)Cc1c(C)nn2c(Cl)ccc2c1-c1ccc(F)cc1` [Example 192, Ethyl 4-[7-chloro-4-(4-fluorophenyl)-2-methylpyrrolo[1,2-b]pyridazin-3-yl]-3-oxobutanoate] the figure was 116 to 118 °C. Take `CCc1ccc2c(-c3cncc(Br)c3)c(CCC(=O)NC)c(C)nn12` [Example 389, 3-[4-(5-bromo-3-pyridinyl)-7-ethyl-2-methylpyrrolo[1,2-b]pyridazin-3-yl]-N-methylpropanamide]: the melting point fell in the range of 172 to 174 °C. Broadly, the IC50 is the concentration that inhibits the measured activity by half. Consider `CCc1ccc2c(-c3ccc(C(N)=O)cc3)c(CCCCCC(=O)O)c(C)nn12` [Example 198, 6-{4-[4-(Aminocarbonyl)phenyl]-7-ethyl-2-methylpyrrolo[1,2-b]pyridazin-3-yl}hexanoic acid], for which the IC50 in data set [1] was under 1000 nM; in data set [2] it was under 100 nM. Consider `CCc1ccc2c(-c3cncc(Cl)c3)c(CCCCC(=O)O)c(COC)nn12` [Example 503, 5-[4-(5-chloro-3-pyridinyl)-7-ethyl-2-(methoxymethyl)pyrrolo[1,2-b]pyridazin-3-yl]pentanoic acid], for which the melting point is 118 to 119 °C. In the case of `CCc1ccc2c(-c3cncc(Cl)c3)c(CCC(=O)O)c(COC)nn12` [Example 502, 3-[4-(5-chloro-3-pyridinyl)-7-ethyl-2-(methoxymethyl)pyrrolo[1,2-b]pyridazin-3-yl]propanoic acid], the melting point is 159 to 160 °C. Still for that read-out and setting: with `CCc1ccc2c(-c3cncc(Br)c3)c(CCCCC(=O)NS(C)(=O)=O)c(C)nn12` [Example 267, N-{5-[4-(5-Bromo-3-pyridinyl)-7-ethyl-2-methylpyrrolo[1,2-b]pyridazin-3-yl]pentanoyl}methanesulfonamide] the figure was 124 to 125 °C. Still for that read-out and setting: next, `CCc1ccc2c(-c3cncc(OC)c3)c(CCCC(=O)O)c(COC)nn12` [Example 499, 4-[7-ethyl-2-(methoxymethyl)-4-(5-methoxy-3-pyridinyl)pyrrolo[1,2-b]pyridazin-3-yl]butanoic acid]: 140 to 141 °C.

`CCc1ccc2c(-c3cncc(Cl)c3)c(CCCC(=O)O)c(COC)nn12` [Example 501, 4-[4-(5-chloro-3-pyridinyl)-7-ethyl-2-(methoxymethyl)pyrrolo[1,2-b]pyridazin-3-yl]butanoic acid] yielded a melting point of 112 to 113 °C. On to `CCc1ccc2c(-c3cncc(OC)c3)c(CCCCC(=O)O)c(COC)nn12` [Example 496, 5-[7-ethyl-2-(methoxymethyl)-4-(5-methoxy-3-pyridinyl)pyrrolo[1,2-b]pyridazin-3-yl]pentanoic acid], for which the melting point lay in the range of 111 to 112 °C. Same read-out and setting: with `CCc1ccc2c(-c3cncc(Br)c3)c(CCC(=O)NS(C)(=O)=O)c(C)nn12` [Example 390, N-{3-[4-(5-bromo-3-pyridinyl)-7-ethyl-2-methylpyrrolo[1,2-b]pyridazin-3-yl]propanoyl}methanesulfonamide] the figure was 196.5 to 197.5 °C; with `CCc1ccc2c(-c3ccnc(Cl)c3)c(CCCCC(=O)O)c(C)nn12` [Example 94, 5-[4-(2-Chloro-4-pyridinyl)-7-ethyl-2-methylpyrrolo[1,2-b]pyridazin-3-yl]pentanoic acid], 139 to 140 °C; with `CCc1ccc2c(-c3cncc(Br)c3)c(CCC(=O)N3CCOCC3)c(C)nn12` [Example 388, 4-(5-bromo-3-pyridinyl)-7-ethyl-2-methyl-3-[3-(4-morpholinyl)-3-oxopropyl]pyrrolo[1,2-b]pyridazine], 178 to 180 °C. On to `CCc1ccc2c(-c3cncc(OC)c3)c(CCC(=O)O)c(COC)nn12` [Example 498, 3-[7-ethyl-2-(methoxymethyl)-4-(5-methoxy-3-pyridinyl)pyrrolo[1,2-b]pyridazin-3-yl]propanoic acid], for which the melting point fell in the range of 164 to 165 °C.

On to `CCc1ccc2c(-c3cccc(Cl)c3)c(C#N)c(-c3ccccc3)nn12` [Example 7, 4-(3-Chlorophenyl)-7-ethyl-2-phenylpyrrolo[1,2-b]pyridazine-3-carbonitrile], for which the melting point fell in the range of 172 to 173 °C. Still for that read-out and setting: next, `CCc1ccc2c(-c3cccc(C#N)c3)c(CCCCC(=O)N3CCOCC3)c(-c3ccccc3)nn12` [Example 282, 3-{7-Ethyl-3-[5-(4-morpholinyl)-5-oxopentyl]-2-phenylpyrrolo[1,2-b]pyridazin-4-yl}benzonitrile]: 66 to 69 °C. For `CCc1ccc2c(-c3cncc(Br)c3)c(C(=O)OC)c(COC(C)=O)nn12` [Example 429, methyl 2-[(acetyloxy)methyl]-4-(5-bromo-3-pyridinyl)-7-ethylpyrrolo[1,2-b]pyridazine-3-carboxylate], the melting point lay within 122 to 123 °C. Still for that read-out and setting: with `CCc1ccc2c(-c3cccc(C#N)c3)c(CCCCC(=O)NC)c(-c3ccccc3)nn12` [Example 278, 5-[4-(3-Cyanophenyl)-7-ethyl-2-phenylpyrrolo[1,2-b]pyridazin-3-yl]-N-methylpentanamide] the figure was 60 °C.
